US20160115200A1, “New Use for JNK Inhibitor Molecules for Treatment of Various Diseases” (XIGEN INFLAMMATION LTD., priority 2013, published 2016)
Square brackets hold non-standard residues; d marks the D form. Peptide text beside a SMILES is read from it.

Assays:
[1] = system: mouse model of scopolamine-induced dry eye; experiment: Scopolamine-induced dry eye in mice (TBUT, PRTT, histopathology); assay type: in vivo; details: for TBUT mean nadir: TID topical ocular
Excerpt: The objective of this study was to assess the effects of two different compounds, the all-D-retro-inverso JNK-inhibitor (poly-)peptide of SEQ ID NO: 197 and the JNK inhibitor (poly-)peptide of SEQ ID NO: 172, at three dose levels in a mouse model of scopolamine-induced dry eye.
The study consisted of a total of 9 groups of female C57BL/6 mice, comprising 8 groups of 12 mice each and an additional group of 4 mice. Bilateral short-term dry eye was induced by a combination of scopolamine hydrobromide (Sigma-Aldrich Corp., St. Louis, Mo.) injection (subcutaneous (SC), four times daily, 0.5 mg/dose, Days 0-21) and by exposing mice to the drying environment of constant air draft. […] Mice of Group 9 were maintained as un-induced, (no dry eye) untreated controls.
During the in-life (treatment) period, clinical observations were recorded once daily; slit-lamp examination (SLE) with corneal fluorescein staining, tear break-up time test (TBUT), and phenol red thread test (PRTT) were performed three times per week. Necropsies were performed on Day 22; eyes, eye lids, conjunctivae, and lacrimal glands were collected from both eyes of each animal. Tissues from the right eyes (oculus dexter, OD) were fixed and then evaluated microscopically. Tissues from the left eyes (oculus sinister; OS) were flash-frozen in liquid nitrogen and stored frozen at −80° C. for possible subsequent analyses.
The TBUT test was conducted three times weekly by measuring the time elapsed in seconds between a complete blink after application of fluorescein to the cornea and the appearance of the first random dry spot in the tear film. […] At least ninety seconds later, corneal epithelial damage was graded using a slit-lamp with a cobalt blue filter after another drop of 0.1% fluorescein was reapplied to the cornea; the cornea then was scored per the Draize ocular scale.
Tear production was measured three times a week in both eyes using PRTT test strips (Zone-Quick; Menicon, Nagoya, Japan). Prior to the first treatment of the day, a thread was applied to the lateral canthus of the conjunctival fornix of each eye for 30 seconds under slit-lamp biomicroscopy. Tear migration up the tread (i.e., the length of the wetted cotton thread) was measured using a millimeter scale.
At necropsy on Day 22, both eyes from each animal, including the globes, lacrimal glands, eyelids, and conjunctivae, were excised. The right eye and associated tissues were fixed by overnight submersion in modified Davidson's solution followed by transfer to 10% neutral buffered formalin (NBF). The fixed tissues of the right eye were dehydrated, embedded in paraffin, sectioned at 3 to 5-μm thicknesses, and slide-mounted tissues were stained with hematoxylin and eosin (H & E). Stained slides were evaluated via light microscopy. Detailed and complete histopathologic assessment was conducted on all parts of the eye, with at least two section levels being examined histopathologically for each right eye. Special attention was paid to the cornea, epithelia (including goblet cells) of the conjunctiva and cornea, as well as the lacrimal gland. These tissues were scored for injury based upon a 0-4 scale, with 0 being normal, 1 being minimal, 2 being mild, 3 being moderate, and 4 being severe. For each cornea, scores were based on corneal epithelium thickness, and corneal inflammation. Conjunctivae were scored for erosion and inflammation as well as presence or absence of goblet cells.

human whole blood = experiment: Cytokine release in human whole blood stimulated 3 days with PHA-L or CD3/CD28 antibodies; assay type: cell-based; details: human whole blood, 1, 3, 10 μM
Protocol: Whole blood from human healthy volunteers was collected using a venipuncture connected to a pre-labeled vacuum tube containing sodium citrate. Tubes are gently mixed by inversion 7-8 times; and are then kept at RT until stimulation. 350 μl of RPMI+P/S were added into 1.2 ml-96-well plate. 10 times concentrated of SEQ ID NO: 172 was prepared in RPMI+P/S (50 μl per well). 50 μl was added into 1.2 ml-96 well plates. 50 μl of whole blood was then added in each well where either medium alone or JNK inhibitor has been previously added. Whole blood was incubated at 37° C., 5% CO2 for 60 min. 50 μl/well of ligands diluted in RPMI+P/S was prepared, corresponding to the final dilution 10 times concentrated. After 60 min of incubation, ligand was added; wells were then mixed by pipetting up and down the blood. Whole blood was incubated for 3 days at 37° C. (wells were mixed by pipetting each well up and down once per day). At the end of incubation, plates were mixed and then centrifuged at 2500 rpm, 4° C. for 15 min in a pre-cooled centrifuge. Cytokine were then measured using standard Elisa kits. Results are expressed as pg/ml of supernatant of the measured cytokine.
A similar experiment was carried out with slight modifications. In the case of […] stimulation, CD3 antibody was coated at 2 μg/mL in PBS overnight at 4° C. The day of experiment, wells were washed three times with PBS and left in PBS until use at 37° C. CD28 antibody was added 1 h after SEQ ID NO: 172 at final concentration of 2 μg/mL; supernatants were collected after 3 days of stimulation.

[2] = dissolved in 0.9% NaCl, up to 0.4 mg/ml
Excerpt: To receive three different doses (cf. above, groups table) it has been serially diluted (1:10 fold).

[3] = system: endotoxins-induced uveitis albino rat model; experiment: Endotoxins-induced uveitis (EIU), single intravenous injection, clinical scoring 24 h after LPS; assay type: in vivo; design: key to EIU clinical score, median: clinical score per eye, 0 to 4 scale; details: for EIU clinical score, mean±SEM / EIU clinical score, median: 24 hours after LPS
Protocol: The aim of this study was to determine the effects of single intravenous injections of SEQ ID NO: 172 (0.015, 0.18, and 1.80 mg/kg) on the inflammatory response in an endotoxins-induced uveitis albino rat model and to compare these affects to those obtained with prior art JNK inhibitor of SEQ ID NO: 197 (2 mg/kg). As a further control served phosphate sodic dexamethasone.
Sixty (60) male Lewis rats were randomly divided into six (6) groups of ten (10) animals each. EIU was induced by footpad injection of lipopolysaccharide (LPS, 1 mg/kg). NaCl (0.9%), SEQ ID NO: 197 at 2 mg/kg and SEQ ID NO: 172 at three concentrations (1.80 mg/kg, 0.18 mg/kg and 0.015 mg/kg) were administered by intravenous injection. Phosphate sodic dexamethasone (20 μg/eye) was administered by sub-conjunctival injection in both eyes. 24 hours after LPS injection, inflammatory response was evaluated by clinical scoring.
The intensity of clinical ocular inflammation was scored on a scale from 0 to 4 for each eye: […]

With CC(C)C[C@H](NC(=O)[C@H](CC(N)=O)NC(=O)[C@H](CC(C)C)NC(=O)[C@@H](NC(=O)[C@@H](C)NC(=O)[C@@H]1CCCN1C(=O)[C@H](CCCNC(=N)N)NC(=O)[C@@H](CCCCN)NC(=O)[C@@H]1CCCN1C(=O)[C@H](CCCNC(=N)N)NC(=O)[C@@H](CCCNC(=N)N)NC(=O)[C@H](CCCNC(=N)N)NC(=O)[C@H](CCCNC(=N)N)NC(=O)[C@H](CCC(N)=O)NC(=O)[C@@H](CCCNC(=N)N)NC(=O)[C@H](CCCNC(=N)N)NC(=O)[C@H](CCCCN)NC(=O)[C@H](CCCCN)NC(=O)[C@H](N)CCCNC(=N)N)[C@@H](C)O)C(=O)N[C@H](Cc1ccccc1)C(N)=O [SEQ ID NO: 172, rKKRrQRRrRPkRPaTLNLf] (H-[dR]KKR[dR]QRR[dR]RP[dK]RP[dA]TLNL[dF]-NH2) the TBUT mean nadir ([1]; Day 7, high-dose 0.6% (Group 7)) was 6.7 ± 0.3 s, the TBUT mean nadir ([1]; Day 7, low-dose 0.05% (Group 5)) was 6.6 ± 0.4 s and the TBUT mean nadir ([1]; Day 7, mid-dose 0.2% (Group 6)) was 6.7 ± 0.4 s. It also gave a TBUT mean peak ([1]; Day 9, high-dose 0.6% (Group 7)) of 9.9 ± 0.8 s, a TBUT mean peak ([1]; Day 9, low-dose 0.05% (Group 5)) of 8.0 ± 0.4 s and a TBUT mean peak ([1]; Day 9, mid-dose 0.2% (Group 6)) of 10.0 ± 0.7 s. The “PRTT, aqueous tear production compared with cyclosporine” value ([1]; Day 21, mid and high-dose (Groups 6 and 7)) was “therapeutic effects similar to cyclosporine”, the “TBUT means compared with vehicle group” value ([1]; low, medium and high-dose, Groups 2, 3 and 4) was “above the vehicle group” and the “aqueous tear production (PRTT) compared with vehicle” value ([1]; low, mid or high-dose SEQ ID NO: 172) was “significantly more aqueous tears compared to vehicle-treated animals”. For the same compound, the “histological cornea scores compared with cyclosporine group” value ([1]; mid and high-dose SEQ ID NO: 172 (Groups 6, 7), high-dose SEQ ID NO: 197 (Group 4)) was “not significantly different than the cyclosporine group scores”, the “CD3/CD28-induced TNF-α release” value (human whole blood; CD3+/-CD28 antibodies 2 μg/mL) was “reduce the CD3/CD28-induced TNF-α release in a dose-dependent manner” and the “PHA-L-induced IL-2 release” value (human whole blood; PHA-L 5 μg/mL) was “reduce the PHA-L-induced IL-2 release in a dose-dependent manner”. For the same compound, the “PHA-L-induced TNF-α release” value (human whole blood; PHA-L 5 μg/mL) was “reduce the PHA-L-induced TNF-α release in a dose-dependent manner”, the solubility [2] was “readily soluble” and the “EIU clinical score, mean±SEM” value ([3]; 0.015 mg/kg i.v.) was 2.3±0.3. For the same compound, the “EIU clinical score, median” value ([3]; 0.015 mg/kg i.v.) was 2, the “EIU clinical score, mean±SEM” value ([3]; 0.18 mg/kg i.v.) was 2.4±0.3 and the “EIU clinical score, median” value ([3]; 0.18 mg/kg i.v.) was 2. The “EIU clinical score, mean±SEM” value ([3]; 1.80 mg/kg i.v.) was 2.1±0.3, the “EIU clinical score, median” value ([3]; 1.80 mg/kg i.v.) was 2 and the “endotoxin-induced inflammation in the anterior chamber” value ([3]; intravenously injected at 0.015, 0.18, 1.80 mg/kg) was “also reduced the endotoxin-induced inflammation in the anterior chamber”.
